Measured values taken from ChEMBL document CHEMBL1177794, “Broad spectrum alkynyl inhibitors of T315I Bcr-Abl” (Bioorg Med Chem Lett, 2010).

Key:
[1] = system: BaF3; test: Antiproliferative activity against mouse BAF3 cells expressing Bcr-Abl T315I mutant; type: functional, cell-based
[2] = system: Proto-oncogene tyrosine-protein kinase receptor Ret (Homo sapiens), P07949 [V804M]; test: Inhibition of RET V804M mutant at 10 uM; values are per cent of control
[3] = target: Cyclin-dependent kinase 19 (Homo sapiens) (UniProt Q9BWU1); test: Inhibition of CDK11 at 10 uM; values are per cent of control
[4] = system: Phosphatidylinositol 4,5-bisphosphate 3-kinase catalytic subunit alpha isoform (Homo sapiens), P42336 [M1043I]; test: Inhibition of PIK3CA M1043I mutant at 10 uM
[5] = target: Serine/threonine-protein kinase Nek4 (Homo sapiens) (UniProt P51957); test: Inhibition of NEK4 at 10 uM
[6] = target: Calcium/calmodulin-dependent protein kinase type II subunit gamma (Homo sapiens) (UniProt Q13555); test: Inhibition of CAMK2G at 10 uM; conditions: values are per cent of control
[7] = target: Dual specificity tyrosine-phosphorylation-regulated kinase 1A (Homo sapiens) (UniProt Q13627); test: Inhibition of DYRK1A at 10 uM; conditions: values are per cent of control
[8] = target: Serine/threonine-protein kinase PLK3 (Homo sapiens) (UniProt Q9H4B4); test: Inhibition of PLK3 at 10 uM
[9] = target: cGMP-dependent protein kinase 2 (Homo sapiens) (UniProt Q13237); test: Inhibition of PRKG2 at 10 uM
[10] = target: Protein kinase C iota type (Homo sapiens) (UniProt P41743); test: Inhibition of PRKCI at 10 uM
[11] = target: Mitogen-activated protein kinase 7 (Homo sapiens) (UniProt Q13164); test: Inhibition of ERK5 at 10 uM; values are per cent of control
[12] = target: MAP/microtubule affinity-regulating kinase 4 (Homo sapiens) (UniProt Q96L34); test: Inhibition of MARK4 at 10 uM; conditions: values are per cent of control
[13] = target: Glycogen synthase kinase-3 alpha (Homo sapiens) (UniProt P49840); test: Inhibition of GSK3A at 10 uM; conditions: values are per cent of control
[14] = system: Phosphatidylinositol 4,5-bisphosphate 3-kinase catalytic subunit alpha isoform (Homo sapiens), P42336 [H1047Y]; test: Inhibition of PIK3CA H1047Y mutant at 10 uM
[15] = target: Tyrosine-protein kinase ABL2 (Homo sapiens) (UniProt P42684); test: Inhibition of ABL2 at 10 uM; conditions: values are per cent of control
[16] = target: Ephrin type-A receptor 3 (Homo sapiens) (UniProt P29320); test: Inhibition of EPHA3 at 10 uM; conditions: values are per cent of control
[17] = target: NUAK family SNF1-like kinase 1 (Homo sapiens) (UniProt O60285); test: Inhibition of ARK5 at 10 uM; values are per cent of control
[18] = target: MAP kinase-activated protein kinase 2 (Homo sapiens) (UniProt P49137); test: Inhibition of MAPKAPK2 at 10 uM; conditions: values are per cent of control
[19] = target: Ephrin type-A receptor 8 (Homo sapiens) (UniProt P29322); test: Inhibition of EPHA8 at 10 uM; conditions: values are per cent of control
[20] = target: Macrophage colony-stimulating factor 1 receptor (Homo sapiens) (UniProt P07333); test: Inhibition of CSF1R at 10 uM; conditions: values are per cent of control
[21] = target: Aurora kinase A (Homo sapiens) (UniProt O14965); test: Inhibition of AURKA at 10 uM; conditions: values are per cent of control
[22] = target: Serine/threonine-protein kinase TAO1 (Homo sapiens) (UniProt Q7L7X3); test: Inhibition of TAOK1 at 10 uM
[23] = target: Serine/threonine-protein kinase N1 (Homo sapiens) (UniProt Q16512); test: Inhibition of PKN1 at 10 uM
[24] = system: Phosphatidylinositol 4,5-bisphosphate 3-kinase catalytic subunit alpha isoform (Homo sapiens), P42336 [I800L]; test: Inhibition of PIK3CA I800L mutant at 10 uM
[25] = target: Serine/threonine-protein kinase 16 (Homo sapiens) (UniProt O75716); test: Inhibition of STK16 at 10 uM
[26] = target: Dual serine/threonine and tyrosine protein kinase (Homo sapiens) (UniProt Q6XUX3); test: Inhibition of RIPK5 at 10 uM
[27] = target: BMP-2-inducible protein kinase (Homo sapiens) (UniProt Q9NSY1); test: Inhibition of BIKE at 10 uM; conditions: values are per cent of control
[28] = target: Serine/threonine-protein kinase PAK 2 (Homo sapiens) (UniProt Q13177); test: Inhibition of PAK2 at 10 uM
[29] = target: Cyclin-G-associated kinase (Homo sapiens) (UniProt O14976); test: Inhibition of GAK at 10 uM; conditions: values are per cent of control
[30] = target: Serine/threonine-protein kinase PLK2 (Homo sapiens) (UniProt Q9NYY3); test: Inhibition of PLK2 at 10 uM; conditions: values are per cent of control
[31] = target: Tyrosine-protein kinase Yes (Homo sapiens) (UniProt P07947); test: Inhibition of YES at 10 uM; conditions: values are per cent of control
[32] = target: Phosphatidylinositol 5-phosphate 4-kinase type-2 gamma (Homo sapiens) (UniProt Q8TBX8); test: Inhibition of PIP5K2C at 10 uM
[33] = target: cAMP-dependent protein kinase catalytic subunit PRKX (Homo sapiens) (UniProt P51817); test: Inhibition of PRKX at 10 uM
[34] = target: Tyrosine-protein kinase Mer (Homo sapiens) (UniProt Q12866); test: Inhibition of MERTK at 10 uM; conditions: values are per cent of control
[35] = target: Dual specificity mitogen-activated protein kinase kinase 7 (Homo sapiens) (UniProt O14733); test: Inhibition of MKK7 at 10 uM
[36] = target: Megakaryocyte-associated tyrosine-protein kinase (Homo sapiens) (UniProt P42679); test: Inhibition of CTK at 10 uM; conditions: values are per cent of control
[37] = system: Mast/stem cell growth factor receptor Kit (Homo sapiens), P10721 [V559D,V654A]; test: Inhibition of KIT V559D, V654A mutant at 10 uM; conditions: values are per cent of control
[38] = target: Ankyrin repeat and protein kinase domain-containing protein 1 (Homo sapiens) (UniProt Q8NFD2); test: Inhibition of ANKK1 at 10 uM; conditions: values are per cent of control
[39] = target: Dual specificity tyrosine-phosphorylation-regulated kinase 2 (Homo sapiens) (UniProt Q92630); test: Inhibition of DYRK2 at 10 uM; conditions: values are per cent of control
[40] = target: Ephrin type-A receptor 1 (Homo sapiens) (UniProt P21709); test: Inhibition of EPHA1 at 10 uM; conditions: values are per cent of control
[41] = target: Serine/threonine-protein kinase BRSK1 (Homo sapiens) (UniProt Q8TDC3); test: Inhibition of BRSK1 at 10 uM; conditions: values are per cent of control
[42] = target: Serine/threonine-protein kinase D1 (Homo sapiens) (UniProt Q15139); test: Inhibition of PRKD1 at 10 uM
[43] = target: Cyclin-dependent kinase-like 1 (Homo sapiens) (UniProt Q00532); test: Inhibition of CDKL1 at 10 uM; conditions: values are per cent of control
[44] = target: SRSF protein kinase 1 (Homo sapiens) (UniProt Q96SB4); test: Inhibition of SRPK1 at 10 uM

Sequence of Protein kinase C iota type (Homo sapiens) (P41743 whole entry): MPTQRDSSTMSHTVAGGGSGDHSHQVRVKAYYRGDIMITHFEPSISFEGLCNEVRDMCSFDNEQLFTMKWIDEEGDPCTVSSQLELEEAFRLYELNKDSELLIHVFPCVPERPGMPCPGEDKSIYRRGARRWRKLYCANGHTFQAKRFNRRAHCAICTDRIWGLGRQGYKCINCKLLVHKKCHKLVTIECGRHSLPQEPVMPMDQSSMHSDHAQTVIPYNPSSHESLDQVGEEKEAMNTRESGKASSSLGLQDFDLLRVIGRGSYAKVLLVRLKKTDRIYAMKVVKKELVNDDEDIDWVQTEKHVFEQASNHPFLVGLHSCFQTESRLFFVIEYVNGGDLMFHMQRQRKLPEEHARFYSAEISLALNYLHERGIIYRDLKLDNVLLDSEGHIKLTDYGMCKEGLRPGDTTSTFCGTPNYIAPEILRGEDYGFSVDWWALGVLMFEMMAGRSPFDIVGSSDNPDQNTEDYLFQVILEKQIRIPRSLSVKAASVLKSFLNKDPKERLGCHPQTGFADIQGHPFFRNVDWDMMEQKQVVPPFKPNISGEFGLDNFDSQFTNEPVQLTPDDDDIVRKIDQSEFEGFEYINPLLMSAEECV
Sequence of Phosphatidylinositol 4,5-bisphosphate 3-kinase catalytic subunit alpha isoform (Homo sapiens), P42336 [H1047Y] (P42336 whole entry H1047Y, canonical isoform): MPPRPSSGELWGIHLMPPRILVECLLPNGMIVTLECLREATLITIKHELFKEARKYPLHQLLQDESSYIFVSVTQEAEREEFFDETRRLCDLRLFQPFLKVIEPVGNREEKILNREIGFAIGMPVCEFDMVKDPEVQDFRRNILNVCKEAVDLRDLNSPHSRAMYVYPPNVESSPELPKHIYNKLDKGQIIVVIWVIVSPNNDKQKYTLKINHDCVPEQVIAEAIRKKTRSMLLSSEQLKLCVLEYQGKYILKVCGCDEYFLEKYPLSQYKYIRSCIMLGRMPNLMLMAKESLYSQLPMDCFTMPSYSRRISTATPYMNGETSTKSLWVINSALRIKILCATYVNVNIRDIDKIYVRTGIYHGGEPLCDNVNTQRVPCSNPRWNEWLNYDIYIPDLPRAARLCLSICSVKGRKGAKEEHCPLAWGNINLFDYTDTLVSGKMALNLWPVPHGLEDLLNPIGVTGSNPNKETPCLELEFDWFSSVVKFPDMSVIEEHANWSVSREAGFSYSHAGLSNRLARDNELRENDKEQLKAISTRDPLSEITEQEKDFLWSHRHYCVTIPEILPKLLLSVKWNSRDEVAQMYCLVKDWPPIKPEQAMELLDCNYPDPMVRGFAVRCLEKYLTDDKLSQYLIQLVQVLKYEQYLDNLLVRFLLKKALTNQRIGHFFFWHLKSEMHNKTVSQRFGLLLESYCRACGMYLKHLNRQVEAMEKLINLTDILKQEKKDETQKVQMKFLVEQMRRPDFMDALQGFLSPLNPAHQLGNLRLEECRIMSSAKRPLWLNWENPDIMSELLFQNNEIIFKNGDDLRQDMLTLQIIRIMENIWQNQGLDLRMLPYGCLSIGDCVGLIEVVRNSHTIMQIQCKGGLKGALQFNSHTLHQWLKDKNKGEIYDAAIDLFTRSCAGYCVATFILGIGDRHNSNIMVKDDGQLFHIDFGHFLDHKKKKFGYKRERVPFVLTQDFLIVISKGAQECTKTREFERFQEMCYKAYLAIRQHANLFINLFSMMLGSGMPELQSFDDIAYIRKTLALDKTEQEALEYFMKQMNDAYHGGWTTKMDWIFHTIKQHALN
Sequence of Megakaryocyte-associated tyrosine-protein kinase (Homo sapiens) (P42679 whole entry): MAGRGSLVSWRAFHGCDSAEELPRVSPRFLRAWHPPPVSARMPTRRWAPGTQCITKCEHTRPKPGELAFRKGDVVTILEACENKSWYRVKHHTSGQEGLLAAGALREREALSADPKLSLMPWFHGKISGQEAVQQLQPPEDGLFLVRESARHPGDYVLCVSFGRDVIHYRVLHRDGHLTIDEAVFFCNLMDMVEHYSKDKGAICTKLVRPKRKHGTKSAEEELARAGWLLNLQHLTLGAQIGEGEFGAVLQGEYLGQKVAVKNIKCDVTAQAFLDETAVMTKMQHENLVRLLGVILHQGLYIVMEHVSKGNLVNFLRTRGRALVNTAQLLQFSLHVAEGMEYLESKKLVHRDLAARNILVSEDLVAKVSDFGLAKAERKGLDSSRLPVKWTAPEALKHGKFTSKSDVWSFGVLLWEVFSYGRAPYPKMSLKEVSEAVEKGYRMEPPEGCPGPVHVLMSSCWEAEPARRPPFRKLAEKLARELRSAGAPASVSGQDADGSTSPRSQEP
Sequence of MAP/microtubule affinity-regulating kinase 4 (Homo sapiens) (Q96L34 whole entry): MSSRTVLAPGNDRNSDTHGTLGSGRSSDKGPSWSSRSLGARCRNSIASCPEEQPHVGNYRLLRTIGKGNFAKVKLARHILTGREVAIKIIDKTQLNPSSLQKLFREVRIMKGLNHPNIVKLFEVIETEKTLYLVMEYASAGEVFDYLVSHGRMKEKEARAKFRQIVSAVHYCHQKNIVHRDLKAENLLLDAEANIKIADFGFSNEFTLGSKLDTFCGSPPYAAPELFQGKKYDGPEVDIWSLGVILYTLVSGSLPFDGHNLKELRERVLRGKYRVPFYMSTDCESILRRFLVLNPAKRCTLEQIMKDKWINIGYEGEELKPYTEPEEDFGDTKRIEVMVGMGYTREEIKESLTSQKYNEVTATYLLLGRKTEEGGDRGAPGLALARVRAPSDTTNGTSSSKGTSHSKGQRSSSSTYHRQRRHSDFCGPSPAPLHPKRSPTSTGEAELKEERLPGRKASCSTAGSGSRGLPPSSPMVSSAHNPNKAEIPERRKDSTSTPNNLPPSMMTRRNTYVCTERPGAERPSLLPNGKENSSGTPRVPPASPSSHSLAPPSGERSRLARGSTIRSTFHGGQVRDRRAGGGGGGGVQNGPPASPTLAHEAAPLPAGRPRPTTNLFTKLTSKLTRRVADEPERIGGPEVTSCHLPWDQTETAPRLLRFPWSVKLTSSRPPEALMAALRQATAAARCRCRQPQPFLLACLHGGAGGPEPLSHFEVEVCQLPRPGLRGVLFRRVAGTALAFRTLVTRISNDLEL
Sequence of Serine/threonine-protein kinase TAO1 (Homo sapiens) (Q7L7X3 whole entry): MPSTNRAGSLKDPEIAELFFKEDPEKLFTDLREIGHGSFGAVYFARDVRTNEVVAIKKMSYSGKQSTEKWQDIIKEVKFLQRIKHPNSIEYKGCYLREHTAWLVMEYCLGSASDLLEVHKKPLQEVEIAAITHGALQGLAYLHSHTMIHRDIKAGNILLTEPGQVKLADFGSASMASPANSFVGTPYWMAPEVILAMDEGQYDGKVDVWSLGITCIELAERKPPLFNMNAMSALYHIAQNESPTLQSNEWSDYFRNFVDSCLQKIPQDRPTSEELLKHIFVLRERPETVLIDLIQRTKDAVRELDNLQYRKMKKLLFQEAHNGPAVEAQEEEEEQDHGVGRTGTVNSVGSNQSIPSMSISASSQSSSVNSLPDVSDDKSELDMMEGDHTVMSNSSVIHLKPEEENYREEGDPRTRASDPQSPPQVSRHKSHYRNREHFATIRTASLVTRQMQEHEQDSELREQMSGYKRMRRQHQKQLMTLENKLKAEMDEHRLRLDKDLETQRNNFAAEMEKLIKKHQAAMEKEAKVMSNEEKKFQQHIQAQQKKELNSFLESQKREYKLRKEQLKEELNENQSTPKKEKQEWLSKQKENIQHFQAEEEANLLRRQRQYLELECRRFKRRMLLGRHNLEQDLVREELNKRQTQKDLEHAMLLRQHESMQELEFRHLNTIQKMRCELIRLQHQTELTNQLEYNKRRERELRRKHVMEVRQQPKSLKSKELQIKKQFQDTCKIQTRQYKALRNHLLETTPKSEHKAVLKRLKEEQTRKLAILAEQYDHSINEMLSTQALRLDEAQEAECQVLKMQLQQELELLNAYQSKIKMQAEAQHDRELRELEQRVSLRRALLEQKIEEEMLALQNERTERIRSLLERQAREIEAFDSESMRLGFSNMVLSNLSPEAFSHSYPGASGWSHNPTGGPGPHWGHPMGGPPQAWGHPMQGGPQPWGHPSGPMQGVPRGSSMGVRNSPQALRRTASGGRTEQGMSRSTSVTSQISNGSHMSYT
Sequence of Proto-oncogene tyrosine-protein kinase receptor Ret (Homo sapiens), P07949 [V804M] (P07949 whole entry V804M): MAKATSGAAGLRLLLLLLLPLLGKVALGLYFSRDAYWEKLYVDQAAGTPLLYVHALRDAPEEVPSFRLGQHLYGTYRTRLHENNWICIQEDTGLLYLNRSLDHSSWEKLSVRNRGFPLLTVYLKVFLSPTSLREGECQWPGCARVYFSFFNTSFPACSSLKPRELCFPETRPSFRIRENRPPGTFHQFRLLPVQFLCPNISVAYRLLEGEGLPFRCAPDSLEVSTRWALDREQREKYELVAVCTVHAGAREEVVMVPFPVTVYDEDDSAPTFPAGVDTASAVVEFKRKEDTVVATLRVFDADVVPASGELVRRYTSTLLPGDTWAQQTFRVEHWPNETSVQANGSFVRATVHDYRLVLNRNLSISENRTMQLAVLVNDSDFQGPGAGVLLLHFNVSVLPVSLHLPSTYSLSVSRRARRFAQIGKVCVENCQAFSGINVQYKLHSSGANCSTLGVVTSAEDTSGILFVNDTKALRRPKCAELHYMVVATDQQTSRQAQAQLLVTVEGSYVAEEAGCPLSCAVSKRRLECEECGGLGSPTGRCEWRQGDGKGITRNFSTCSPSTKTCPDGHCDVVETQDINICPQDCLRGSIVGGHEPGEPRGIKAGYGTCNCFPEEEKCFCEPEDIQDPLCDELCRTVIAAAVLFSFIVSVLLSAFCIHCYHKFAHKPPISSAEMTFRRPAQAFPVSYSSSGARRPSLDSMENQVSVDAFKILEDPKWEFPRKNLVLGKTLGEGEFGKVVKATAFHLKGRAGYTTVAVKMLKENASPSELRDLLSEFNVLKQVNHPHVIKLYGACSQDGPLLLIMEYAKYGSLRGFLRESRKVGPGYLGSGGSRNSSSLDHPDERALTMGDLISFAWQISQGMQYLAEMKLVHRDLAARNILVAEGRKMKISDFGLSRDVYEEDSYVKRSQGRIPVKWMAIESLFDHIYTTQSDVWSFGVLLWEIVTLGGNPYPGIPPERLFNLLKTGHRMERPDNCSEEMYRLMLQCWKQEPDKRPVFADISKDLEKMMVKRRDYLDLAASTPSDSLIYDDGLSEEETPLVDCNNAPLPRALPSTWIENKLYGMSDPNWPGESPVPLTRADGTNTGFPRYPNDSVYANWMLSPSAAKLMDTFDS

CCN1CCN(Cc2ccc(NC(=O)c3ccc(C)c(C#Cc4cccnc4)c3)cc2C(F)(F)F)CC1
EC50 [1]: 92 nM
level, % of control [2]: 0%
level, % of control [3]: 5%
inhibition [4]: 83%
inhibition [5]: 6.4%
residual binding, % of control [6]: 95%
residual binding, % of control [7]: 60%
inhibition [8]: 90%
inhibition [9]: 97%
inhibition [10]: 42%
level, % of control [11]: 71%
residual binding, % of control [12]: 87%
residual binding, % of control [13]: 100%
inhibition [14]: 81%
residual binding, % of control [15]: 0.05%
residual binding, % of control [16]: 0.85%
level, % of control [17]: 100%
residual binding, % of control [18]: 85%
residual binding, % of control [19]: 0%
residual binding, % of control [20]: 0%
residual binding, % of control [21]: 100%
inhibition [22]: 0.25%
inhibition [23]: 85%
inhibition [24]: 72%
inhibition [25]: 100%
inhibition [26]: 27%
residual binding, % of control [27]: 59%
inhibition [28]: 84%
residual binding, % of control [29]: 7.4%
residual binding, % of control [30]: 100%
residual binding, % of control [31]: 0.1%
inhibition [32]: 100%
inhibition [33]: 3.6%
residual binding, % of control [34]: 5.2%
inhibition [35]: 11%
residual binding, % of control [36]: 35%
residual binding, % of control [37]: 4.2%
residual binding, % of control [38]: 8.2%
residual binding, % of control [39]: 48%
residual binding, % of control [40]: 1.2%
residual binding, % of control [41]: 84%
inhibition [42]: 51%
residual binding, % of control [43]: 88%
inhibition [44]: 100%

CCN1CCN(Cc2ccc(NC(=O)c3ccc(C)c(C#Cc4cnc5[nH]ccc5c4)c3)cc2C(F)(F)F)CC1
EC50 [1]: 80 nM
level, % of control [2]: 0%
level, % of control [3]: 4.2%
inhibition [4]: 100%
inhibition [5]: 14%
residual binding, % of control [6]: 92%
residual binding, % of control [7]: 100%
inhibition [8]: 92%
inhibition [9]: 77%
inhibition [10]: 40%
level, % of control [11]: 36%
residual binding, % of control [12]: 85%
residual binding, % of control [13]: 100%
inhibition [14]: 82%
residual binding, % of control [15]: 0%
residual binding, % of control [16]: 0.75%
level, % of control [17]: 95%
residual binding, % of control [18]: 100%
residual binding, % of control [19]: 0%
residual binding, % of control [20]: 0%
residual binding, % of control [21]: 97%
inhibition [22]: 0%
inhibition [23]: 28%
inhibition [24]: 100%
inhibition [25]: 47%
inhibition [26]: 8.2%
residual binding, % of control [27]: 30%
inhibition [28]: 76%
residual binding, % of control [29]: 2%
residual binding, % of control [30]: 100%
residual binding, % of control [31]: 0.25%
inhibition [32]: 100%
inhibition [33]: 19%
residual binding, % of control [34]: 0.5%
inhibition [35]: 5.4%
residual binding, % of control [36]: 45%
residual binding, % of control [37]: 1.4%
residual binding, % of control [38]: 7.1%
residual binding, % of control [39]: 51%
residual binding, % of control [40]: 0.6%
residual binding, % of control [41]: 100%
inhibition [42]: 63%
residual binding, % of control [43]: 89%
inhibition [44]: 100%
